Assay results taken from US12491145B2, “Synthesis and purification of cannabigerol and its application” (SYMRISE AG, priority 2019, dated 2025).

Key:
[1] = target: T1, tyrosinase (Mus musculus, UniProt P11344); experiment: Measurement of tyrosinase activity in lysates of treated B16 cells (L-dopa, dopachrome formation, 475 nm); format: cell-based
T1 construct: host or cells: B16 mouse melanocytes (melanoma line)
T1 sequence (P11344 19-533): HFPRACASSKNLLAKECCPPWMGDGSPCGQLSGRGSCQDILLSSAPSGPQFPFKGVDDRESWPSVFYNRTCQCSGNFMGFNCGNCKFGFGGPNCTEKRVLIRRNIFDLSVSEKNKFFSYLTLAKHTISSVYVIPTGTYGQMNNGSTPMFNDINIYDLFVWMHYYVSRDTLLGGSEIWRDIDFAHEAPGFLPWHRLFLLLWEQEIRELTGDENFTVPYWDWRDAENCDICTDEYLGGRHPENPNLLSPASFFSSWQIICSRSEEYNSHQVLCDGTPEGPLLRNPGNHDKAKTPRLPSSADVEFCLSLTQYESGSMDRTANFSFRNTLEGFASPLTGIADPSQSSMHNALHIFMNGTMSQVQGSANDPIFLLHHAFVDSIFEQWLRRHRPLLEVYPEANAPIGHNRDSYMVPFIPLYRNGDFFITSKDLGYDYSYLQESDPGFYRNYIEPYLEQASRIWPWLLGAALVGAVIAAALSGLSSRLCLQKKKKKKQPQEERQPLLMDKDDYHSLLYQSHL
Procedure: (§1) Cell Culture. The cell line B16 (mouse melanocytes, obtained from ATCC and part of SimDerma platform) was maintained in supplemented DMEM medium containing 10% FBS and 1% antibiotics penicillin/streptomycin (DMEM complete medium) at 37° C. in a humidified atmosphere of 5% CO2.
Measurements of Tyrosinase Activity: To measure the tyrosinase activity of the cells, B16 cells were treated for 3 days with several doses of the compounds (cannabigerol (1) or kojic acid), then lysed by incubation at 4° C. for 30 min in lysis buffer (20 mM sodium phosphate, pH 6.8, 1% Triton X-100, 1 mM PMSF, 1 mM EDTA) containing protease inhibitors cocktail. The lysates were centrifuged at 15.000 g for 10 min to obtain the supernatant as the source of tyrosinase. The reaction mixture contained 20 mM phosphate buffer, pH 6.8, 1.25 mM L-dopa (Sigma-Aldrich). After incubation at 37° C. for 30 min, dopachrome formation was monitored by measuring absorbance at a wavelength of 475 nm in a microplate reader (TriStar LB 941 Berthold Technologies, GmbH & Co. KG). Kojic acid was used as a positive control.

[2] = tested on: B16 melanoma cells; experiment: Determination of melanin content in B16 cells; format: cell-based, mouse
Procedure: as §1
(§2) Determination of Melanin Content and Cytotoxicity in B16 cells: To analyse the effect of cannabigerol (1) on melanogenesis, B16 melanoma cells were used as a cellular assay system to evaluate the depigmenting activity in cell cultures. B16 cells (4A5) were treated for 3 days with several doses of the compounds (cannabigerol (1) or kojic acid). The cells were washed with phosphate buffer saline (PBS) at the end of the treatment and dissolved in 1 N NaOH containing 10% DMSO for 1 h at 60° C. The absorbance at 405/490 nm was measured (TriStar LB 941 Berthold Technologies, GmbH & Co. KG) and the melanin content quantified with a reference standard of synthetic melanin (Sigma-Aldrich, St Louis, Mo., USA). Cytotoxicity was measured in parallel by the MTT assay to discard that melanin inhibition is not masked by cytotoxicity. Kojic acid was used as a positive control.

[3] = tested on: B16 cells; format: cell-based, mouse
Procedure: as §2

| Compound | inhibition of tyrosinase compared with positive control ([1]; 1 μg/ml cannabigerol vs 2 mM kojic acid, B16 cells, 3 days) | doses at which tyrosinase activity was inhibited ([1]; B16 cells treated for 3 days) | inhibition compared with reference inhibitor in the used test systems (tyrosinase activity, melanin production; FIG. 2 and 3) ([1]; B16 melanocytes) | melanin production, dose dependence [2] | inhibition at 1 µg/mL ([2]; Mus musculus, B16, 72 h, read-out: inhibition of melanin production) | cytotoxic effects [3] | reduction of melanin production ([2]; 2 mM, B16 cells, 3 days) |
| --- | --- | --- | --- | --- | --- | --- | --- |
| CCCCCc1cc(O)c(C/C=C(\C)CCC=C(C)C)c(O)c1 [Cannabigerol (1), Cannabigerol] | as potent as the effect of 2 mM of kojic acid | ≥ 0.5 µg/mL | stronger inhibition than the used reference inhibitor kojic acid | dose dependently prevented | ~30% | no cytotoxic effects | – |
| O=c1cc(CO)occ1O [kojic acid, reference compound] | – | – | – | – | – | – | approx. 20% |
